Experimental data as given in the NIST ThermoML archive (doi:10.1021/acs.jced.7b01035).

Experiment: wn = mass fraction of the nth substance listed
Details: 500 kPa, Liquid, Concentric cylinders viscometry

NCCCO [3-amino-1-propanol] + O
viscosity [mPa·s]
Details	w1 = 0.1	w1 = 0.2	w1 = 0.3	w1 = 0.4	w1 = 0.5	w1 = 0.6	w1 = 0.7	w1 = 0.8	w1 = 0.9	w1 = 1
298.15 K	1.27	1.84	2.95	4.76	7.58	12.17	18.56	26.23	29.26	30.43
303.15 K	1.14	1.62	2.5	3.97	6.18	9.64	14.5	20.98	22.76	23.87
308.15 K	1.01	1.41	2.15	3.34	5.1	7.69	11.48	15.73	17.96	19.07
313.15 K	0.89	1.25	1.82	2.82	4.23	6.25	9.21	12.52	14.36	15.27
318.15 K	0.81	1.12	1.59	2.42	3.59	5.17	7.5	10.09	11.6	12.36
323.15 K	0.75	1.01	1.4	2.11	3.07	4.34	6.17	8.24	9.47	10.22
328.15 K	0.72	0.92	1.24	1.86	2.65	3.69	5.14	6.81	7.78	8.54
333.15 K	0.66	0.84	1.1	1.66	2.31	3.17	4.33	5.68	6.47	7.12
338.15 K	0.61	0.76	0.99	1.47	2.03	2.74	3.67	4.79	5.43	6.05
343.15 K	0.58	0.73	0.9	1.32	1.81	2.39	3.15	4.08	4.61	4.84
348.15 K	0.57	0.7	0.82	1.2	1.64	2.09	2.72	3.51	3.93	4.17
353.15 K	0.55	0.67	0.75	1.08	1.46	1.85	2.37	3.03	3.39	3.63
358.15 K	0.41	0.54	0.69	0.99	1.32	1.68	2.09	2.7	2.93	3.19
363.15 K	0.39	0.49	0.65	0.93	1.25	1.51	1.86	2.4	2.56	2.73
368.15 K	0.37	0.47	0.63	0.88	1.16	1.37	1.66	2.13	2.24	2.52
373.15 K	0.35	0.44	0.59	0.82	1.05	1.26	1.49	1.91	1.98	2.25
